Laboratory results reported in US20230305022A1, “Biomarkers in Primary Biliary Cholangitis” (University of Newcastle upon Tyne, priority 2020, published 2023).

Tested on: Ep-CAM
Test: Discovery serum proteomics (Olink), UDCA-treated vs treatment-naïve PBC patients
Format: in vivo, human
Settings: serum NPX, UDCA 13-15 mg/kg/day for >12 months (n=416) vs treatment-naïve (n=68)
Method: UDCA-Treated PBC: These were PBC patients who had been taking UDCA at a therapeutic dose (13-15 mg/kg/day) for greater than 12 months. Clinical parameters, including serum biochemistry were available both pre-treatment and after 12 months of UDCA therapy. This allowed all UDCA-treated patients to be assigned to responder and non-responder groups using current standard criteria including Paris 1 (Alanine Transaminase (ALT)>2× upper limit of normal [ULN], Alkaline Phosphatase (ALP)>3×ULN, Bilirubin>1×ULN) (Corpechot et al., 2008), Paris 2 (ALP and ALT both >1.5×ULN)(Corpechot et al., 2011) and POISE (ALP <1.67×ULN and bilirubin <1×ULN) (Nevens et al., 2016). UK-PBC risk score 10-year predicted survival was also calculated for UDCA-treated patients after therapy. Patients taking fibrates and or OCA were not included in the current study. […]
Blood was collected under the approval of the Human Tissue Authority (HTA) by the UK-PBC tissue Bioresource with written informed patient consent obtained in accordance with research and ethics committee (REC) approval (14/NW/1146). […] 4 μl serum was analysed for 368 analytes from 4 distinct panels including Cardiovascular II &Ill, Inflammation and Oncology II (https://www.olink.com/). […] In turn, this was amplified by microfluidic quantitative PCR with normalised protein expression (NPX) data generated by a ΔΔct calculation method. […]

SMILES: C[C@H](CCC(=O)O)[C@H]1CC[C@H]2[C@@H]3[C@@H](O)C[C@@H]4C[C@H](O)CC[C@]4(C)[C@H]3CC[C@]12C [UDCA, Ursodeoxycholic acid]
- log Fold Change of serum protein, UDCA Tx vs Naïve Tx: −0.84
